Measured values: paper PMC12339982 (Nature Communications, 2025)
Where a chain is given by its changes, count along the chain named.

How the values were obtained:
[1] = molecular target: T1, human wild type TauT (TauT^WT) (Homo sapiens, UniProt P31641); experiment: [3H]taurine uptake inhibition assay in HEK293T cells overexpressing TauT^WT; type: cell-based; details: result in words
T1 sequence (P31641 1-620): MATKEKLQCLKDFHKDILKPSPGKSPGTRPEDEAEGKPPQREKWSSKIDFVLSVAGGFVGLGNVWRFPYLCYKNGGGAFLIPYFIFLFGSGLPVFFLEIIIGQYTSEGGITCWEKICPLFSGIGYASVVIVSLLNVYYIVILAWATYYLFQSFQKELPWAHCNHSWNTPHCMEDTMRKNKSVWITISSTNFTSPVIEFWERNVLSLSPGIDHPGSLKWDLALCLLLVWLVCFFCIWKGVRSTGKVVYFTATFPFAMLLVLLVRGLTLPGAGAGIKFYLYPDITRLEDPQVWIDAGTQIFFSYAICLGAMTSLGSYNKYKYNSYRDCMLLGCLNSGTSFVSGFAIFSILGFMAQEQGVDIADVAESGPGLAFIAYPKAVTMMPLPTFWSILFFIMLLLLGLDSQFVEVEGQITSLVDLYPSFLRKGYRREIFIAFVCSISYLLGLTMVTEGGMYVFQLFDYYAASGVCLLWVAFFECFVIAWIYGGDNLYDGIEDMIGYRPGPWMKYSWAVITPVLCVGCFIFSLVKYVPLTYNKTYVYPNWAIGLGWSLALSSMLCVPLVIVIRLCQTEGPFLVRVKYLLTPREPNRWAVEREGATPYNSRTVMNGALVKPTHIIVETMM

TauT Y138A mutant = molecular target: T2, TauT Y138A mutant (Homo sapiens, UniProt P31641, Y138A); experiment: MST binding, TauT Y138A; details: mean ± s.e.m., n=3
T2 sequence (P31641 1-620 Y138A): T1 sequence (P31641 1-620) with Y138A

TauT F300A mutant = molecular target: T3, TauT F300A mutant (Homo sapiens, UniProt P31641, F300A); experiment: MST binding, TauT F300A; details: mean ± s.e.m., n=3
T3 sequence (P31641 1-620 F300A): T1 sequence (P31641 1-620) with F300A

TauT E406A mutant = molecular target: T4, TauT E406A mutant (Homo sapiens, UniProt P31641, E406A); experiment: MST binding, TauT E406A; details: mean ± s.e.m., n=3
T4 sequence (P31641 1-620 E406A): T1 sequence (P31641 1-620) with E406A

Row | SMILES | inhibition of the uptake activity of TauT [1] | Kd (MST) (TauT Y138A mutant) | Kd (MST) (TauT F300A mutant) | Kd (MST) (TauT E406A mutant)
1 | [H]/N=C(/N)NCC(=O)O [GAA, guanidinoacetate] | potent inhibitory effects | drastic loss of GAA binding affinity | drastic loss of GAA binding affinity | only marginally weakened the binding affinity
2 | NCCS(=O)(=O)O [Taurine, taurine] | – | undetectable binding | reduced the taurine binding to varying extents | reduced the taurine binding to varying extents
3 | NCCCC(=O)O [GABA, γ-aminobutyric acid] | potent inhibitory effects | complete loss of the binding | complete loss of the binding | reduces the binding affinity of GABA slightly
